Measured values taken from patent publication US9120777B2, “Heterocyclic compound” (Takeda Pharmaceutical Company Limited, priority 2013, dated 2015).

These molecules were tested on Female KK-Ay/Ta mice, a type 2 diabetes model (assay: Antidiabetic effect in mice (glycated hemoglobin after 2 weeks of treatment)). Conditions: 1 mg/kg orally once a day for 2 weeks, n=8.
Format: in vivo
Excerpt: Antidiabetic Effect in Mice
Female KK-Ay/Ta mice (Clea Japan Inc.), a type 2 diabetes model, were used in this study. At the age of 7-week old, blood sample were collected from tail vein at 8:00 am, and animals were divided into separate groups (n=8) based on glycated hemoglobin (GHb), plasma glucose, insulin, triglyceride levels and body weight. Vehicle (0.5% (w/v) methylcellulose) or compounds (suspended in vehicle) were orally administered once a day for 2 weeks. After 2 weeks of treatment, GHb was determined by auto-analyzer HLC-723G8 (TOSOH, Japan).

| Structure (SMILES) | average of delta GHb (%) |
| --- | --- |
| Cc1c(C(=O)O)ccn(C2CCN(Cc3cc(C4CC4)c(-c4ccc(F)cc4)c(F)c3OC(C)C)CC2)c1=O [Example 49, 1-(1-((6-Cyclopropyl-2,4′-difluoro-3-isopropoxybiphenyl-4-yl)methyl)piperidin-4-yl)-3-methyl-2-oxo-1,2-dihydropyridine-4-carboxylic acid] | −0.51 |

What follows are molecules tested against T1, human SSTR5 (Homo sapiens, UniProt P35346) (assay: Evaluation of human SSTR5 antagonist activity using intracellular cAMP concentration as index). Conditions: 1 uM test compound; CHO (dhfr-) cells stably expressing human SSTR5; 0.1 nM somatostatin 28 and 0.3 uM forskolin; HTRF cAMP; read-out: Inhibition rate against SSTR5 at 1 uM.
T1 construct: expressed in transfected cells
T1 sequence (P35346 whole entry): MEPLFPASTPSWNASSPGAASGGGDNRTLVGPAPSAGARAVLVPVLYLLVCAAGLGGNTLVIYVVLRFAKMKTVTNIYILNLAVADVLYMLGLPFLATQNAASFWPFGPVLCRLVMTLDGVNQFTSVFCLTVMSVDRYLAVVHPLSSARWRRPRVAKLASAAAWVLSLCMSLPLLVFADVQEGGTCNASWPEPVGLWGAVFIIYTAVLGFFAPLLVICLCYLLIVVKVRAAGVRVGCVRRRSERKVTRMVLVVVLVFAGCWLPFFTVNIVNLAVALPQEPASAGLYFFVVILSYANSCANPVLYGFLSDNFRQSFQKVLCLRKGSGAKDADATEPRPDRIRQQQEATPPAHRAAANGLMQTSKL
Format: cell-based
Experimental: Evaluation of Human SSTR5 Antagonist Activity Using Intracellular cAMP Concentration as Index
The intracellular cAMP concentration was measured using HTRF cAMP dynamic 2 kit (Cisbio Bioassays). Each test compound diluted with an assay buffer (HBSS (Invitrogen Corp.) containing 5 mM HEPES (pH 7.5) (Invitrogen Corp.), 0.1% fatty-acid free BSA (Sigma-Aldrich Corp.), and 500 u (“u” represents “micro”)M IBMX (Wako Pure Chemical Industries, Ltd.)) was added at a concentration of 2 uL/well to a 384-well white plate (Greiner Bio-One Co., Ltd.) to give the final concentration of 1 uM. A frozen stock of CHO (dhfr−) cells stably expressing the human SSTR5 gene (Accession No. NM_001053) was thawed in a thermostat bath of 37 C and suspended in a subculture medium (MEM alpha (Wako Pure Chemical Industries, Ltd.), 10% dialyzed serum (Gemini Bio-Products), and 50 ug/mL gentamicin (Invitrogen Corp.). After centrifugation of the cell suspension, the cells were resuspended in an assay buffer and added at a concentration of 2 uL/well (about 4,000 cells/well) to the plate. The compound and the cells were incubated for 15 minutes, and then, an assay buffer containing 0.1 nM (final concentration) somatostatin 28 (Toray Research Center) and 0.3 uM (final concentration) forskolin (Wako Pure Chemical Industries, Ltd.) was added thereto at a concentration of 2 uL/well, followed by incubation at room temperature for 30 minutes. cAMP-d2 and anti-cAMP-cryptate were each added thereto at a concentration of 3 uL/well. The plate was left standing at room temperature for 60 minutes. Then, the fluorescence resonance energy transfer (FRET) intensity was measured using Multi-label reader Envision (PerkinElmer). The FRET intensity of the wells supplemented with the test compound group was converted to a cAMP concentration using a calibration curve prepared from the FRET intensity of a well group containing an assay buffer supplemented with an arbitrary concentration of cAMP. The inhibitory activity of each compound was calculated according to the following expression: Inhibitory activity(%)=(C−B)/(A−B)×100 A: cAMP concentration calculated from the wells supplemented with 0.3 uM forskolin B: cAMP concentration calculated from the wells supplemented with 0.3 uM forskolin and 0.1 nM somatostatin 28 C: cAMP concentration calculated from the wells supplemented with 0.3 uM forskolin, 0.1 nM somatostatin 28, and 1 uM test compound

| inhibition at 1 µM [%] | Structure (SMILES) |
| --- | --- |
| 111 | CCc1c(C(=O)O)ccn(C2CCN(Cc3cc(C4CC4)c(C4CC4)c(F)c3OC(C)C)CC2)c1=O [Example 47, 1-(1-(4,5-dicyclopropyl-3-fluoro-2-isopropoxybenzyl)piperidin-4-yl)-3-ethyl-2-oxo-1,2-dihydropyridine-4-carboxylic acid] |
| 89 | CCc1c(C(=O)O)ccn(C2CCN(Cc3cc(C4CC4)c(-c4ccc(F)cc4)cc3OC(C)C)CC2)c1=O [Example 51, 1-(1-((2-cyclopropyl-4′-fluoro-5-isopropoxybiphenyl-4-yl)methyl)piperidin-4-yl)-3-ethyl-2-oxo-1,2-dihydropyridine-4-carboxylic acid] |
| 94 | CCc1c(C(=O)O)ccn(C2CCN(Cc3cc(C4CC4)c(-c4ccc(F)cc4F)cc3OC(C)C)CC2)c1=O [Example 6, 1-(1-((2-cyclopropyl-2′,4′-difluoro-5-isopropoxybiphenyl-4-yl)methyl)piperidin-4-yl)-3-ethyl-2-oxo-1,2-dihydropyridine-4-carboxylic acid] |
| 98 | CCOc1c(CN2CCC(n3ccc(C(=O)O)c(CC)c3=O)CC2)cc(C2CC2)c(-c2ccc(F)cc2F)c1F [Example 45, 1-(1-((6-cyclopropyl-3-ethoxy-2,2′,4′-trifluorobiphenyl-4-yl)methyl)piperidin-4-yl)-3-ethyl-2-oxo-1,2-dihydropyridine-4-carboxylic acid] |
| 134 | CC(C)Oc1nc(-c2ccc(F)cc2)c(C2CC2)cc1CN1CCC(n2ccc(C(=O)O)cc2=O)CC1 [Example 2, 1-(1-((5-cyclopropyl-6-(4-fluorophenyl)-2-isopropoxypyridin-3-yl)methyl)piperidin-4-yl)-2-oxo-1,2-dihydropyridine-4-carboxylic acid] |

Second part, the molecule before the results:

| Structure (SMILES) | inhibition at 1 µM [%] |
| --- | --- |
| CCOc1cc(C2CCC2)c(C2CC2)cc1CN1CCC(n2ccc(C(=O)O)cc2=O)CC1 [Example 1, 1-(1-(4-cyclobutyl-5-cyclopropyl-2-ethoxybenzyl)piperidin-4-yl)-2-oxo-1,2-dihydropyridine-4-carboxylic acid] | 84 |
| CCc1c(C(=O)O)ccn(C2CCN(Cc3cc(C4CC4)c(-c4ccc(F)cc4)c(F)c3OC(C)C)CC2)c1=O [Example 43, 1-(1-((6-cyclopropyl-2,4′-difluoro-3-isopropoxybiphenyl-4-yl)methyl)piperidin-4-yl)-3-ethyl-2-oxo-1,2-dihydropyridine-4-carboxylic acid] | 133 |
| CC(C)Oc1cc(-c2ccc(F)cc2)c(C2CC2)cc1CN1CCC(n2ccc(C(=O)O)cc2=O)CC1 [Example 3, 1-(1-((2-cyclopropyl-4′-fluoro-5-isopropoxybiphenyl-4-yl)methyl)piperidin-4-yl)-2-oxo-1,2-dihydropyridine-4-carboxylic acid] | 116 |
| CCc1c(C(=O)O)ccn(C2CCN(Cc3cc(C4CC4)c(-c4ccc(F)cc4F)c(F)c3OC(C)C)CC2)c1=O [Example 7, 1-(1-((6-cyclopropyl-2,2′,4′-trifluoro-3-isopropoxybiphenyl-4-yl)methyl)piperidin-4-yl)-3-ethyl-2-oxo-1,2-dihydropyridine-4-carboxylic acid] | 124 |
| CC(C)Oc1cc(C2CC2)c(C2CC2)cc1CN1CCC(n2ccc(C(=O)O)cc2=O)CC1 [Example 4, 1-(1-(4,5-dicyclopropyl-2-isopropoxybenzyl)piperidin-4-yl)-2-oxo-1,2-dihydropyridine-4-carboxylic acid] | 120 |
| CC(C)Oc1c(CN2CCC(n3ccc(C(=O)O)cc3=O)CC2)cc(C2CC2)c(-c2ccc(F)cc2F)c1Cl [Example 5, 1-(1-((2-chloro-6-cyclopropyl-2′,4′-difluoro-3-isopropoxybiphenyl-4-yl)methyl)piperidin-4-yl)-2-oxo-1,2-dihydropyridine-4-carboxylic acid] | 88 |
